Assay results published in ChEMBL document CHEMBL3046660, “Synthesis, cytotoxic, and DNA binding studies of novel fluorinated condensed pyrano pyrazoles” (Med Chem Res, 2013).
Activity calls are given as the source filed them. No cut-off for these calls is given here.

Legend:
[1] = test system: A549; experiment: Cytotoxicity against Homo sapiens (human) A549 cells assessed as inhibition of cell viability by MTT assay; type: functional, cell-based
[2] = test system: HeLa; experiment: Cytotoxicity against Homo sapiens (human) HeLa cells assessed as inhibition of cell viability by MTT assay; type: functional, cell-based
[3] = test system: MRC5; experiment: Cytotoxicity against Homo sapiens (human) MRC5 cells assessed as inhibition of cell viability by MTT assay; type: cell-based
[4] = Binding affinity to DNA assessed as peak current at 1 mM measured at potential of 1.3 V at 30 min after drug addition by cyclic voltammetry in presence of 1 mM cytosine
[5] = Binding affinity to DNA assessed as peak current at 1 mM measured at potential of 1.3 V immediately after drug addition by cyclic voltammetry in presence of 1 mM cytosine
[6] = Binding affinity to DNA assessed as peak current at 1 mM measured at potential of 0.45 V immediately after drug addition by cyclic voltammetry in presence of 1 mM cytosine
[7] = Binding affinity to DNA assessed as peak current at 1 mM at potential of 1.3 V by cyclic voltammetry
[8] = Binding affinity to DNA assessed as peak current at 1 mM measured at potential of 0.45 V at 3 hr after drug addition by cyclic voltammetry in presence of 3 mM cytosine
[9] = Binding affinity to DNA assessed as peak current at 1 mM measured at potential of 1.3 V at 3 hr after drug addition by cyclic voltammetry in presence of 3 mM cytosine
[10] = Binding affinity to DNA assessed as peak current at 1 mM at potential of 0.45 V by cyclic voltammetry

Row | Activity [4] | Activity [5] | Activity [6] | Activity [7] | Activity [8] | Activity [9] | Activity [10] | Structure (SMILES) | IC50 [1] | IC50 [2] | IC50 [3]
1 | – | – | – | – | – | – | – | Cc1ccc(C2C(C#N)=C(N)Oc3c2c(C(F)(F)F)nn3-c2ccc(F)cc2)cc1 (stereo not given) | > 100 µM | > 100 µM | > 100 µM
2 | – | – | – | – | – | – | – | N#CC1=C(N)Oc2c(c(C(F)(F)F)nn2-c2ccc(F)cc2)C1c1ccc([N+](=O)[O-])cc1 (stereo not given) | > 100 µM | > 100 µM | > 100 µM
3 | – | – | – | – | – | – | – | COc1cccc(C2C(C#N)=C(N)Oc3c2c(C(F)(F)F)nn3-c2ccccc2)c1 (stereo not given) | > 100 µM | > 100 µM | > 100 µM
4 | – | – | – | – | – | – | – | N#CC1=C(N)Oc2c(c(C(F)(F)F)nn2-c2ccc(F)cc2)C1c1cccs1 (stereo not given) | > 100 µM | > 100 µM | > 100 µM
5 | – | – | – | – | – | – | – | N#CC1=C(N)Oc2c(c(C(F)(F)F)nn2-c2ccccc2)C1c1cccs1 (stereo not given) | 75.5 µM | 74.1 µM | > 100 µM
6 | – | – | – | – | – | – | – | N#CC1=C(N)Oc2c(c(C(F)(F)F)nn2-c2ccccc2)C1c1ccc([N+](=O)[O-])cc1 (stereo not given) | > 100 µM | > 100 µM | > 100 µM
7 | Active | inactive | Active | Active | Active | inactive | Active | COc1ccc(C2C(C#N)=C(N)Oc3c2c(C(F)(F)F)nn3-c2ccc(F)cc2)cc1 (stereo not given) | 10.3 µM | > 100 µM | > 100 µM
8 | – | – | – | – | – | – | – | N#CC1=C(N)Oc2c(c(C(F)(F)F)nn2-c2ccccc2)C1c1ccco1 (stereo not given) | > 100 µM | > 100 µM | > 100 µM
9 | – | – | – | – | – | – | – | N#CC1=C(N)Oc2c(c(C(F)(F)F)nn2-c2cccc(Cl)c2)C1c1ccc([N+](=O)[O-])cc1 (stereo not given) | > 100 µM | > 100 µM | > 100 µM
10 | – | – | – | – | – | – | – | N#CC1=C(N)Oc2c(c(C(F)(F)F)nn2-c2cccc(Cl)c2)C1c1ccco1 (stereo not given) | > 100 µM | > 100 µM | > 100 µM
11 | – | – | – | – | – | – | – | COc1ccc(C2C(C#N)=C(N)Oc3c2c(C(F)(F)F)nn3-c2cccc(Cl)c2)cc1 (stereo not given) | 89.4 µM | > 100 µM | > 100 µM
